Experimental data as given in patent US20090088376A1, “DENDRIMER BASED COMPOSITIONS AND METHODS OF USING THE SAME” (priority 2007, published 2009).

Experiments:
[1] = tested on: KB cells; test: Inhibition of cell growth (XTT assay / total cell protein); format: cell-based, human
Protocol: Cell culture and treatment.
Evaluation of dendrimer cytotoxicity. Cell growth was determined by assay of the total protein in lysates of treated cells using a bicinchoninic acid reagent (PIERCE, and by XTT assay, using a kit from Roche.
Because the binding of the conjugate to KB cells reaches maximal uptake within 1 h (Quintana et al, 2002. Pharmaceutical Research 19: 1310-1316.), the effect of the G5-FI-FA-MTX on cell growth was initially tested by pre-incubation of cells with the conjugate for 1 h, followed by incubation in a drug-free medium for 5 d. […] When the cells were pre-incubated with dendrimers for 4 h, there was a modest decrease of about 10% in cell growth as determined by XTT assay. The cytotoxicity measurements were therefore done by incubation with the dendrimer for a minimum of 24 h, a pre-incubation time period shown to induce significant cytotoxicity.
Time course and dose dependent inhibition of cell growth. Previous studies have shown that MTX-induced cytotoxicity is detectable in vitro only if the medium is completely deprived of FA (See, e.g., Sobrero & Bertino, Int. J. Cell Cloning 4, 51 (1986)). The effect of the trifunctional dendrimers on cell growth was tested in cells incubated in a FA-deficient medium. Cells were treated with 300 nM conjugates (equivalent of 1500 nM MTX) or 1500 nM free MTX for 1-4 days, and cell proliferation was determined by estimation of cellular protein content. Cells were treated for 2 days with different concentrations of the conjugates or free MTX (the conjugate concentration is given as MTX equivalents, with 5 MTX per dendrimer molecule). KB cells which express high and low FAR were incubated with 30 nM of the dendrimers for 1 hr at 37° C., rinsed, and the fluorescence of cells was determined by flow cytometric analysis (See. e.g., FIG. 21, left panel). Pre-incubation with 50 µM free FA for 30 min totally prevents cellular binding and uptake of the polymer conjugates (See. e.g., FIG. 21, left panel).
The inhibition of cell growth induced by the conjugates was also tested by XTT assay which is based on the conversion of XTT to formazan by the active mitochondria of live cells (See, e.g., Roehm et al, J Immunol Methods 142, 257 (1991)).

[2] = tested on: s.c. human KB xenografts; test: Targeted drug delivery: tumor growth and survival; format: in vivo, SCID mice; conditions: for effect on tumor growth: first trial
Protocol: Tumor cell line. The KB human cell line, which overexpresses the folate receptor (See, e.g., Turek et al, J Cell Sci 106, 423 (1993)), was purchased from the American Type Tissue Collection (Manassas, Va.) and maintained in vitro at 37° C., 5% CO2 in folate-deficient RPMI 1640 supplemented with penicillin (100 units/mL), streptomycin (100 μg/mL), and 10% heat-inactivated fetal bovine serum. Before injection in the mice, the cells were harvested with trypsin-EDTA solution, washed, and resuspended in PBS. The cell suspension (5×10^6 cells in 0.2 mL) was injected s.c. into one flank of each mouse using a 30-gauge needle. In the biodistribution studies, the tumors were allowed to grow for 2 weeks until reaching ˜0.9 cm^3 in volume. The formula chosen to compute tumor volume was for a standard volume of an ellipsoid, where V=4/3π(½ length×½ width×½ depth). With an assumption that width equals depth and […], the formula used was V=½×length×width^2. Targeted drug delivery using conjugate injections was started on the fourth day after implantation of the KB cells.
Delivery of targeted nanoparticle therapeutic.
Statistical methods. Means, SD, and SE of the data were calculated. Differences between the experimental groups and the control groups were tested using Student's-Newman-Keuls' test and Ps<0.05 were considered significant.
Targeted drug delivery to tumor cells through the folate receptor. The efficacy of different doses of conjugates was tested on SCID CB-17 mice bearing s.c. human KB xenografts and was compared with equivalent and higher doses of free methotrexate. Mice were maintained on the folic acid-deficient diet for 3 weeks before injection of the KB tumor cells to achieve circulating levels of folic acid that approach those in human serum and to prevent down-regulation of folate receptors on tumor xenografts (See, Mathias et al., J Nucl Med 29, 1579 (1998)). Six groups of SCID mice with five mice in each group were injected s.c. on one flank with 5×10^6 KB cells in 0.2 mL PBS suspension. The highest total dose of G5-FI-FA-MTX therapeutic used equals 55.0 mg/kg and is equivalent to a 5.0 mg/kg total cumulative dose of free methotrexate (FIG. 29). The therapeutic dose of the conjugate was compared with three cumulative doses of free methotrexate equivalent to 33.3, 21.7, and 5.0 mg/kg accumulated in 10 to 15 injections based on mouse survival. Saline and the conjugate without methotrexate (G5-FT-FA) were used as controls.

[3] = tested on: SCC15 cells; test: XTT cell proliferation assay; format: cell-based, human; conditions: methotrexate 100 nM, G5-FI-EGF 100 nM, 3 days
Protocol: XTT assay. For cytotoxicity experiments, cells (2500 cells/well) were seeded in 96-well microtiter plates in DMEM containing 10% FCS. The cells were treated either with 100 nM each of the conjugates for 72 h. A calorimetric XTT assay, Roche Molecular Biochemicals (Indianapolis, Ind.) was performed following the vendor's protocol. After incubation with an XTT labeling mixture, microtiter plates were read on an ELISA reader (SYNERGY HT, BIOTEK) at 492 nm with the reference wavelength at 690 nm. Vehicle-treated cells were assigned a value of 100%.

[4] = mouse, in vivo
Protocol: (§1) Twice weekly, SCID mice with s.c. KB xenografts, starting on day 4 after tumor implantation, received via the tail vein an injection of either targeted or nontargeted conjugate containing methotrexate, a conjugate without methotrexate, free methotrexate, or saline as a control. The compounds were delivered in a 0.2 mL volume of saline per 20 g of mouse. The single dose of methotrexate delivered each time equaled 0.33 mg/kg. The higher doses of 1.67 and 3.33 mg/kg free methotrexate were also tested. The conjugates were delivered at equimolar concentration of methotrexate calculated based on the number of methotrexate molecules present in a nanoparticle. The conjugate without methotrexate was delivered at equimolar concentration of dendrimer. In the initial trial, six groups of mice with five mice in each group received up to 15 injections. In the follow-up trial, mice received up to 28 injections dependent on their survival. The body weights of the mice were monitored throughout the experiment as an indication of adverse effects of the drug. Histopathology of multiple organs was done at the termination of each trial and each time mouse had to be euthanized due to toxic effects or tumor burden. Tissues from lung, heart, liver, pancreas, spleen, kidney, and tumor were analyzed.
(§2) At each time point, a gross examination and histopathology of the liver, spleen, kidney, lung, and heart were done.

[5] = Toxicity of dendrimer conjugates and free methotrexate (body weight, histopathology)
Protocol: as §1, §2

| Structure (SMILES) | reversal by free FA of growth-arrest caused by MTX ([1]; 150 nM FA, 150 nM MTX, 24 h then 6 d fresh medium, total cell protein) | increase of cell growth above control cells by excess free FA ([1]; 50 μM FA with MTX or G5-FITC-FA-MTX 24 h, then 5 days, XTT) [%] | inhibition of cell growth ([1]; XTT assay, 1, 2 or 3 days) | growth inhibition of free MTX compared with conjugate ([1]; equimolar MTX, below 1 μM) | effect on tumor growth ([2]; cumulative 33.3 and 21.7 mg/kg) | effect on tumor growth ([2]; dose equivalent to 5.0 mg/kg cumulative methotrexate (or equimolar dendrimer)) | day of trial by which all mice died ([2]; second 99-day trial) [days] | survivors at the termination of the trial ([2]; second 99-day trial) | inhibition of cell growth in G5-FI-EGF-treated cells [3] | histopathology of the liver [4] | day of trial by which doses became lethal ([5]; cumulative doses 33.3 and 21.7 mg/kg) [days] | toxicity ([5]; total accumulated dose equivalent to 5.0 mg/kg free methotrexate) |
| --- | --- | --- | --- | --- | --- | --- | --- | --- | --- | --- | --- | --- |
| Nc1nc2ncc(CNc3ccc(C(=O)N[C@@H](CCC(=O)O)C(=O)O)cc3)nc2c(=O)[nH]1 [FA, folic acid] | almost completely reversed | 20 |  |  |  |  |  |  |  |  |  |  |
| CN(Cc1cnc2nc(N)nc(N)c2n1)c1ccc(C(=O)N[C@@H](CCC(=O)O)C(=O)O)cc1 [MTX, methotrexate] |  |  | time-dependent cytotoxicity | higher than with the equimolar concentrations of MTX in the G5-FITC-FA-MTX | affecting tumor growth | no effect on tumor growth | ≤ 66 | no mice surviving | inhibited cell growth in the G5-FI-EGF-treated cells to a greater extent than its inhibition of control cells | advanced liver lesions, collections of inflammatory cells, and periportal inflammation | 32 to 36 | nor free methotrexate at the same dose were toxic |
